In PubChem BioAssay (NCI):
“And” between values parts separate entries of the source, which are not always exact repeats. Equal values may be shown once.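 Dose response: 5 concentrations. Exposure: 48 h. Format: 96-well plates. Endpoint: linear interpolation; highest concentration if not reached. GI50 marks 50% less growth. TGI: total growth inhibition.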

What was measured:
Test in all cases: inhibition of tumour cell growth, NCI panel, 48 h
LOX IMVI melanoma = system: LOX IMVI melanoma
DU-145 prostate = system: DU-145 prostate
SR leukemia = system: SR leukemia
UACC-62 melanoma = system: UACC-62 melanoma
M14 melanoma = system: M14 melanoma
MOLT-4 leukemia = system: MOLT-4 leukemia
UACC-257 melanoma = system: UACC-257 melanoma
786-0 renal = system: 786-0 renal
SK-MEL-5 melanoma = system: SK-MEL-5 melanoma
NCI-H23 lung = system: NCI-H23 lung
SF-539 CNS = system: SF-539 CNS
SW-620 colon = system: SW-620 colon
MCF7 breast = system: MCF7 breast
SK-MEL-2 melanoma = system: SK-MEL-2 melanoma
CAKI-1 renal = system: CAKI-1 renal
OVCAR-8 ovarian = system: OVCAR-8 ovarian
U251 CNS = system: U251 CNS
A498 renal = system: A498 renal
EKVX NSCLC = system: EKVX NSCLC
RPMI-8226 leukemia = system: RPMI-8226 leukemia
RXF 393 renal = system: RXF 393 renal
NCI-H226 lung = system: NCI-H226 lung
UO-31 renal = system: UO-31 renal
PC-3 prostate = system: PC-3 prostate
SN12C renal = system: SN12C renal
MALME-3M melanoma = system: MALME-3M melanoma
K-562 leukemia = system: K-562 leukemia
HCT-15 colon = system: HCT-15 colon
OVCAR-4 ovarian = system: OVCAR-4 ovarian
CCRF-CEM leukemia = system: CCRF-CEM leukemia
MDA-MB-231 breast = system: MDA-MB-231 breast
SNB-19 CNS = system: SNB-19 CNS
TK-10 renal = system: TK-10 renal
COLO 205 colon = system: COLO 205 colon
SK-MEL-28 melanoma = system: SK-MEL-28 melanoma
NCI-H522 lung = system: NCI-H522 lung
BT-549 breast = system: BT-549 breast
HT29 colon = system: HT29 colon
SK-OV-3 ovarian = system: SK-OV-3 ovarian
T-47D breast = system: T-47D breast
HL-60(TB) leukemia = system: HL-60(TB) leukemia
KM12 colon = system: KM12 colon
HS 578T breast = system: HS 578T breast
HOP-62 NSCLC = system: HOP-62 NSCLC
SNB-75 CNS = system: SNB-75 CNS
OVCAR-5 ovarian = system: OVCAR-5 ovarian
NCI/ADR-RES ovarian = system: NCI/ADR-RES ovarian
HCT-116 colon = system: HCT-116 colon
HCC-2998 colon = system: HCC-2998 colon
HOP-92 NSCLC = system: HOP-92 NSCLC
A549 NSCLC = system: A549 NSCLC
IGROV1 ovarian = system: IGROV1 ovarian
MDA-MB-435 = system: MDA-MB-435
OVCAR-3 ovarian = system: OVCAR-3 ovarian
ACHN renal = system: ACHN renal
NCI-H460 lung = system: NCI-H460 lung
SF-268 CNS = system: SF-268 CNS
SF-295 CNS = system: SF-295 CNS

For Cc1ccc(C(=O)N(CCCN)[C@@H](c2nc3cc(Cl)ccc3c(=O)n2Cc2ccccc2)C(C)C)cc1, the GI50 (LOX IMVI melanoma) was under 0.01 µM, the TGI (LOX IMVI melanoma) was 1.81 µM and 1.52 µM and the GI50 (DU-145 prostate) was under 0.01 µM. The GI50 (SR leukemia) was under 0.01 µM, the TGI (SR leukemia) was 1.63 µM and 1.44 µM and the GI50 (UACC-62 melanoma) was under 0.01 µM. The TGI (UACC-62 melanoma) was 1.91 µM and 1.57 µM, the GI50 (M14 melanoma) was under 0.01 µM and the TGI (M14 melanoma) was under 0.01 µM. The GI50 (MOLT-4 leukemia) was under 0.01 µM, the TGI (MOLT-4 leukemia) was 3.87 µM and 1.45 µM and the TGI (UACC-257 melanoma) was 1.86 µM and 2.79 µM. The GI50 (786-0 renal) was under 0.01 µM, the TGI (786-0 renal) was 2.08 µM and 1.98 µM and the GI50 (SK-MEL-5 melanoma) was under 0.01 µM. The TGI (SK-MEL-5 melanoma) was 1.35 µM and 1.46 µM, the GI50 (NCI-H23 lung) was under 0.01 µM and the TGI (NCI-H23 lung) was 1.59 µM and 1.67 µM. The GI50 (SF-539 CNS) was under 0.01 µM, the TGI (SF-539 CNS) was 1.38 µM and 0.654 µM and the GI50 (SW-620 colon) was under 0.01 µM. The TGI (SW-620 colon) was 1.28 µM and 1.61 µM, the GI50 (MCF7 breast) was under 0.01 µM and the TGI (MCF7 breast) was 1.59 µM and 1.33 µM. For the same compound, the GI50 (SK-MEL-2 melanoma) was under 0.01 µM, the TGI (CAKI-1 renal) was 2.33 µM and 1.94 µM and the GI50 (OVCAR-8 ovarian) was under 0.01 µM. For the same compound, the TGI (OVCAR-8 ovarian) was 1.52 µM and 2.11 µM, the GI50 (U251 CNS) was under 0.01 µM and the TGI (U251 CNS) was 1.19 µM and 1.53 µM. For the same compound, the GI50 (A498 renal) was under 0.01 µM, the TGI (A498 renal) was 1.77 µM and 0.816 µM and the GI50 (EKVX NSCLC) was under 0.01 µM. For the same compound, the TGI (EKVX NSCLC) was 2.22 µM and 1.64 µM, the GI50 (RPMI-8226 leukemia) was under 0.01 µM and the TGI (RPMI-8226 leukemia) was 1.72 µM. The GI50 (RXF 393 renal) was under 0.01 µM, the GI50 (NCI-H226 lung) was 0.325 µM and the TGI (NCI-H226 lung) was 2.25 µM and 2.5 µM. The GI50 (UO-31 renal) was 1.12 µM and 1.02 µM, the TGI (UO-31 renal) was 2.58 µM and 2.27 µM and the GI50 (PC-3 prostate) was under 0.01 µM. The TGI (PC-3 prostate) was 2.32 µM and 1.76 µM, the GI50 (SN12C renal) was under 0.01 µM and the TGI (SN12C renal) was 2.28 µM and 1.83 µM. For the same compound, the GI50 (MALME-3M melanoma) was 0.0303 µM, the TGI (MALME-3M melanoma) was 2.39 µM and the GI50 (K-562 leukemia) was under 0.01 µM. The TGI (K-562 leukemia) was 1.67 µM and 1.23 µM, the GI50 (HCT-15 colon) was 0.0159 µM and < 0.01 µM and the TGI (HCT-15 colon) was 1.92 µM and 1.44 µM. The GI50 (OVCAR-4 ovarian) was 1.28 µM and 1.13 µM, the TGI (OVCAR-4 ovarian) was 3.54 µM and 2.46 µM and the GI50 (CCRF-CEM leukemia) was under 0.01 µM. The TGI (CCRF-CEM leukemia) was 3.3 µM and 1.46 µM, the GI50 (MDA-MB-231 breast) was under 0.01 µM and the TGI (MDA-MB-231 breast) was 0.233 µM and 0.172 µM. For the same compound, the GI50 (SNB-19 CNS) was under 0.01 µM, the TGI (SNB-19 CNS) was 2.12 µM and 1.9 µM and the TGI (TK-10 renal) was 1.71 µM and 2.81 µM. The GI50 (COLO 205 colon) was under 0.01 µM, the TGI (COLO 205 colon) was 1.1 µM and the GI50 (SK-MEL-28 melanoma) was 1.11 µM and 1.15 µM. For the same compound, the TGI (SK-MEL-28 melanoma) was 2.5 µM and 2.42 µM, the GI50 (NCI-H522 lung) was under 0.01 µM and the GI50 (BT-549 breast) was 0.043 µM and 0.0103 µM. For the same compound, the TGI (BT-549 breast) was 2.94 µM and 1.67 µM, the GI50 (HT29 colon) was under 0.01 µM and the TGI (HT29 colon) was 1.03 µM and 1.49 µM. For the same compound, the GI50 (SK-OV-3 ovarian) was under 0.01 µM, the TGI (SK-OV-3 ovarian) was 1.65 µM and 2.19 µM and the GI50 (T-47D breast) was under 0.01 µM. For the same compound, the TGI (T-47D breast) was 1.98 µM and 1.67 µM, the GI50 (HL-60(TB) leukemia) was under 0.01 µM and the TGI (HL-60(TB) leukemia) was 0.482 µM. For the same compound, the GI50 (KM12 colon) was under 0.01 µM, the TGI (KM12 colon) was 1.29 µM and 1.44 µM and the GI50 (HS 578T breast) was under 0.01 µM. For the same compound, the GI50 (HOP-62 NSCLC) was < 0.01 µM and 0.01 µM, the TGI (HOP-62 NSCLC) was 2.07 µM and 2.09 µM and the GI50 (SNB-75 CNS) was under 0.01 µM. For the same compound, the TGI (SNB-75 CNS) was 1.56 µM and 1.37 µM, the GI50 (OVCAR-5 ovarian) was under 0.01 µM and the TGI (OVCAR-5 ovarian) was 2.02 µM and 1.74 µM. For the same compound, the GI50 (NCI/ADR-RES ovarian) was 0.0481 µM and 0.0406 µM, the TGI (NCI/ADR-RES ovarian) was 0.307 µM and 0.481 µM and the GI50 (HCT-116 colon) was under 0.01 µM. The TGI (HCT-116 colon) was 1.41 µM and 1.26 µM, the GI50 (HCC-2998 colon) was under 0.01 µM and the TGI (HCC-2998 colon) was 1.23 µM and 0.912 µM. The GI50 (HOP-92 NSCLC) was 1 µM, the TGI (HOP-92 NSCLC) was 2 µM and 2.33 µM and the GI50 (A549 NSCLC) was under 0.01 µM. The TGI (A549 NSCLC) was 1.4 µM and 1.71 µM, the GI50 (IGROV1 ovarian) was under 0.0336 µM and the TGI (IGROV1 ovarian) was 2.09 µM. It also gave a GI50 (MDA-MB-435) of under 0.01 µM, a TGI (MDA-MB-435) of under 0.01 µM and a GI50 (OVCAR-3 ovarian) of under 0.01 µM. For the same compound, the GI50 (ACHN renal) was 0.798 µM, the TGI (ACHN renal) was 2.38 µM and 2.15 µM and the GI50 (NCI-H460 lung) was under 0.01 µM. For the same compound, the TGI (NCI-H460 lung) was 1.09 µM and 1.25 µM, the TGI (SF-268 CNS) was 1.97 µM and 2.35 µM and the GI50 (SF-295 CNS) was under 0.01 µM.
